This is an account of results in patent US20210188856A1, “CRYSTAL FORM OF HYDROCHLORIDE OF PYRAZOLOHETEROARYL DERIVATIVE AND PREPARATION METHOD” (JIANGSU HENGRUI MEDICINE CO., LTD., priority 2018, published 2021).

The pIC50 is the IC50 on a negative log10 scale, so that one unit is a factor of ten.

pIC50: −log10 of the molar value.

The target of the data set is T1, CYP3A4 (Homo sapiens, UniProt P08684).
T1 construct: CYP3A4 in human liver microsome; tissue Corning Gentest; host or cells: human liver microsomes
T1 sequence (P08684 whole entry): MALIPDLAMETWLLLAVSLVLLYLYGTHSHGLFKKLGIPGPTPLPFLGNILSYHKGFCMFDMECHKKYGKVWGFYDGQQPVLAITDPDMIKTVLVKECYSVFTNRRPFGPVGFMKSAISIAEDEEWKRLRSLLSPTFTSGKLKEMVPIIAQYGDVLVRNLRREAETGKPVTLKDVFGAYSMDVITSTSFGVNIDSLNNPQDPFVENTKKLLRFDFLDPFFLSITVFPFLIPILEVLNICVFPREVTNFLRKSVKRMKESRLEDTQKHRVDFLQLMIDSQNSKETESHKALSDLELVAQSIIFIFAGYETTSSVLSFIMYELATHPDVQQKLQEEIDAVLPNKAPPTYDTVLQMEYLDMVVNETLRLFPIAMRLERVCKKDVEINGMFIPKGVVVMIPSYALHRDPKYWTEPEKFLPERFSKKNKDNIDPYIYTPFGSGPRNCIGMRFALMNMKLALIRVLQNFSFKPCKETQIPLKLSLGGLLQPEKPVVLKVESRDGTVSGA
Kind of data set: Inhibition of midazolam metabolite site of CYP3A4 in human liver microsome. It counts as in vitro ADME. As to the method: The effect of the compound represented by formula (I) on the enzyme activity of midazolam metabolite site of CYP3A4 in human liver microsome was determined by the following experimental method:
100 mM PBS buffer was formulated, which was then used to formulate 2.5 mg/mL microsome solution and 5 mM NADPH solution. The 5× concentration of the compound working solution was diluted with PBS gradient (150, 50, 15, 5, 1.5, 0.15, 0.015, 0 μM). The 5× concentration of ketoconazole working solution was diluted with PBS gradient (150, 50, 15, 5, 1.5, 0.15, 0.015, 0 μM). […] working solution was diluted with PBS to a concentration of 50 μM.
20 μL of the 2.5 mg/mL microsome solution, […], 20 μL of MgCl2 solution and 20 μL of the compound working solution (150, 50, 15, 5, 1.5, 0.15, 0.015, 0 μM, different reaction systems for each concentration) were taken respectively and mixed well. For the positive control group, the compound was replaced with the same concentration of ketoconazole. The mixture together with the 5 mM NADPH solution was pre-incubated at 37° C. for 5 minutes. After 5 minutes, 20 μL of NADPH was added to each well, the reaction was started and incubated for 30 minutes. […] 80 μL of the supernatant was taken and analyzed by LC-MS/MS.
The data was calculated by Graphpad Prism to obtain the IC50 value of the compound on the midazolam metabolite site of CYP3A4.
On the technique in general: Microsomes from liver hold many membrane-bound enzymes, among them those of drug oxidation.

Consider `CCCCOc1nc(N)c2cnn(Cc3ccc(CN4CCCC4)cc3)c2n1` [compound represented by formula (I), 6-Butoxy-1-(4-(pyrrolidin-1-ylmethyl)benzyl)-1H-pyrazolo[3,4-d]pyrimidin-4-amine], for which the “inhibitory effect on midazolam metabolic site of CYP3A4 (in words)” value is “no inhibitory effect”. In addition, under “midazolam probe”, the pIC50 was 4.85.
